Source: article PMC11227536, “Modulation of the Meisenheimer complex metabolism of nitro-benzothiazinones by targeted C-6 substitution” (Communications Chemistry, 2024)

Key:
[1] = tested on: K-562; assay: Proliferation assay; type: cell-based; settings: Homo sapiens, K562; 72 h, n = 4
Method: (§1) Supplementary Method 5: Biological Assays […]
(§2) 2. Proliferation and cytotoxicity assay
(§3) Cells and culture conditions
(§4) The following cell lines and media were used:
(§5) Cell line Cell culture medium
(§6) Cells were grown in the appropriate cell culture medium supplemented with 10 mL/L ultraglutamine 1 […]
(§7) heat inactivated fetal bovine serum (GIBCO Life Technologies 10270-106) at 37 °C in 5% CO 2 in high density polyethylene flasks (NUNC 156340).
(§8) To decide if the compounds have an antiproliferative and/or a cytotoxic effect on human cells, cell death and retardation of cell proliferation were assessed. Under our experimental conditions, the optical density measured from the CellTiter-Blue® reagent and methylene blue assay is proportional to the […]
(§9) The test substances were dissolved in DMSO and further diluted in the cell culture medium. The adherent cells were harvested at the logarithmic growth phase after soft trypsinization using 0.25% trypsin in PBS containing 0.02% EDTA (Biochrom KG L2163). For each experiment, approximately 10,000 cells were seeded with 0.1 mL culture medium per well of the 96-well microplates (HUVEC: flat bottomed NUNC 167008, K-562: round bottomed NUNC 163320). To test the antiproliferative […]
effect of test compounds on HUVEC and K-562, the cells were incubated for 72 hours in plates prepared with control and different dilutions of test substances. […]
of proliferation compared to the untreated control. […]
(§10) Cells were incubated with dilutions of the test substances in microplates for 72 hours at 37 °C in a humidified atmosphere and 5% CO 2. […]
cytotoxicity and the inhibition of cell proliferation. The number of viable cells was determined subsequent to staining with CellTiter-Blue® reagent or methylene blue.
K-562 cells: The influence of test substances on cell proliferation of K-562 was determined via the CellTiter-Blue® assay (PROMEGA). Briefly, viable cells are able to reduce the indicator dye resazurin […]
dye. Thus, formation of resorufin was followed by measuring absorption at 570 nm and subtracting absorption measured at 600 nm. […]
(§11) General remarks: Signals from the methylene blue and CellTiter-Blue® reagent are proportional to the number of viable cells. A repeat determination has been conducted in all experiments, four replicates were assayed. The calculations of the different values of GI 50 and CC 50 were performed with the software

[2] = Cytotoxicity assay; type: cell-based; settings: human, n = 4
Method: as §1, §2, §3, §4, §5, §6, §7, §8
as §9, with “163320).” for “163320). To test the antiproliferative”
For the cytotoxicity assay, HeLa cells were preincubated for 48 hours without the test substances. To test the cytotoxic effect on HeLa, dilutions of the compounds were carried out carefully on the subconfluent monolayers of HeLa cells after the preincubation time. After incubation time, the cytolytic effect of compounds was analysed in comparison to the negative control. The 50% cytotoxic concentration (CC 50 ) was defined as the test compound concentration required for destruction of the cell monolayer by 50% compared to untreated control.
as §10
cytotoxicity and the inhibition of cell proliferation. The number of viable cells was determined subsequent to staining with CellTiter-Blue® reagent or methylene blue. […]
HUVEC and HeLa cells: The adherent HUVEC and HeLa cells were fixed by glutaraldehyde (MERCK […]
gently washing, the stain was eluted by adding 0.2 mL of hydrochloric acid (0.33 M) to each well. The optical densities were measured at 660 nm (methylene blue) in SUNRISE microplate reader (TECAN).
as §11

## COC(=O)c1cc([N+](=O)[O-])c2sc(N3CCC4(CC3)OC[C@H](C)O4)nc(=O)c2c1 [Compound 6a]
[1]
  GI50: 66.9 ± 12.6 µM
[2]
  CC50 at 72 h: > 119 µM

## CC(C)OC(=O)c1cc([N+](=O)[O-])c2sc(N3CCC4(CC3)OC[C@H](C)O4)nc(=O)c2c1 [Compound 6c]
[1]
  GI50: > 111 µM
[2]
  CC50 at 72 h: > 111 µM

## C[C@H]1COC2(CCN(c3nc(=O)c4cc(C(=O)O)cc([N+](=O)[O-])c4s3)CC2)O1 [Compound 8]
[1]
  GI50: > 123 µM
[2]
  CC50 at 72 h: > 123 µM

## C[C@H]1COC2(CCN(c3nc(=O)c4cc(Br)cc([N+](=O)[O-])c4s3)CC2)O1 [Compound 11]
[1]
  GI50: > 113 µM
[2]
  CC50 at 72 h: > 113 µM

## C[C@H]1COC2(CCN(c3nc(=O)c4cccc([N+](=O)[O-])c4s3)CC2)O1 [Compound 23]
[1]
  GI50: > 138 µM
[2]
  CC50 at 72 h: > 138 µM

## C[C@H]1COC2(CCN(c3nc(=O)c4cc(I)cc([N+](=O)[O-])c4s3)CC2)O1 [Compound 10]
[1]
  GI50: > 102 µM
[2]
  CC50 at 72 h: > 102 µM

## CON(C)C(=O)c1cc([N+](=O)[O-])c2sc(N3CCC4(CC3)OC[C@H](C)O4)nc(=O)c2c1 [Compound 7f]
[1]
  GI50: > 111 µM
[2]
  CC50 at 72 h: > 111 µM

## C[C@H]1COC2(CCN(c3nc(=O)c4cc(C#N)cc([N+](=O)[O-])c4s3)CC2)O1 [Compound 9]
[1]
  GI50: 94.4 ± 5.9 µM
[2]
  CC50 at 72 h: > 129 µM

## C[C@H]1COC2(CCN(c3nc(=O)c4cc(C(=O)N(C)C)cc([N+](=O)[O-])c4s3)CC2)O1 [Compound 7c]
[1]
  GI50: > 115 µM
[2]
  CC50 at 72 h: > 115 µM
